Test results as given in the supplement of paper PMC10307832.

Legend:
Assay in all cases: relative viability (nuclei count vs DMSO), 5 days (fraction); higher = more cells survive
[1] = test system: ABC-1
In short: (§1)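 Values are medians from duplicate plates. Each reflects relative viability, defined as the nuclei count of treated wells over that of vehicle wells. Lung cancer cell lines in 1536-well plates were pin-tool dosed one day after seeding with one drug alone or with a fixed anchor-drug dose plus five library-drug doses (not always all listed) in √10 steps, then fixed, stained and imaged at 4× after 5 days.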

[2] = test system: BEN
In short: as §1

[3] = test system: CAL-12T
In short: as §1

[4] = test system: COR-L 105
In short: as §1

[5] = test system: HARA
In short: as §1

[6] = test system: HCC-15
In short: as §1

[7] = test system: HCC-366
In short: as §1

[8] = test system: HCC-44
In short: as §1

[9] = test system: HCC-827
In short: as §1

[10] = test system: LC-2-ad
In short: as §1

[11] = test system: LCLC-97TM1
In short: as §1

[12] = test system: LOU-NH91
In short: as §1

[13] = test system: LU99A
In short: as §1

[14] = test system: NCI-H1395
In short: as §1

[15] = test system: NCI-H1650
In short: as §1

[16] = test system: NCI-H1915
In short: as §1

[17] = test system: NCI-H1944
In short: as §1

[18] = test system: NCI-H2009
In short: as §1

[19] = test system: NCI-H2023
In short: as §1

[20] = test system: NCI-H596
In short: as §1

[21] = test system: NCI-H650
In short: as §1

[22] = test system: NCI-H661
In short: as §1

Question: Which results are given for `Cc1cn(-c2cc(NC(=O)c3ccc(C)c(Nc4nccc(-c5cccnc5)n4)c3)cc(C(F)(F)F)c2)cn1` [Nilotinib] + CS(=O)(=O)CCNCc1ccc(-c2ccc3ncnc(Nc4ccc(OCc5cccc(F)c5)c(Cl)c4)c3c2)o1 [Lapatinib] (partner 2 µM)?
Answer: relative viability ([1]; first compound 0.001 µM): 0.925; relative viability ([1]; first compound 0.003162 µM): 1.09; relative viability ([1]; first compound 0.01 µM): 1.35; relative viability ([1]; first compound 0.03162 µM): 0.955; relative viability ([1]; first compound 0.1 µM): 0.952; relative viability ([2]; first compound 0.001 µM): 0.759; relative viability ([2]; first compound 0.003162 µM): 0.74; relative viability ([2]; first compound 0.01 µM): 0.757; relative viability ([2]; first compound 0.03162 µM): 0.518; relative viability ([2]; first compound 0.1 µM): 0.508; relative viability ([3]; first compound 0.001 µM): 0.729; relative viability ([3]; first compound 0.01 µM): 0.748; relative viability ([3]; first compound 0.03162 µM): 0.839; relative viability ([3]; first compound 0.1 µM): 0.74; relative viability ([4]; first compound 0.001 µM): 0.418; relative viability ([4]; first compound 0.01 µM): 0.375; relative viability ([4]; first compound 0.03162 µM): 0.352; relative viability ([4]; first compound 0.1 µM): 0.286; relative viability ([5]; first compound 0.001 µM): 0.685; relative viability ([5]; first compound 0.003162 µM): 0.777; relative viability ([5]; first compound 0.01 µM): 0.686; relative viability ([5]; first compound 0.03162 µM): 0.8; relative viability ([5]; first compound 0.1 µM): 0.454; relative viability ([6]; first compound 0.001 µM): 0.835; relative viability ([6]; first compound 0.003162 µM): 1.07; relative viability ([6]; first compound 0.01 µM): 1.05; relative viability ([6]; first compound 0.03162 µM): 0.663; relative viability ([6]; first compound 0.1 µM): 0.443; relative viability ([7]; first compound 0.001 µM): 0.907; relative viability ([7]; first compound 0.003162 µM): 1.38; relative viability ([7]; first compound 0.01 µM): 1.29; relative viability ([7]; first compound 0.03162 µM): 0.984; relative viability ([7]; first compound 0.1 µM): 0.191; relative viability ([8]; first compound 0.001 µM): 0.994; relative viability ([8]; first compound 0.003162 µM): 1.09; relative viability ([8]; first compound 0.01 µM): 0.822; relative viability ([8]; first compound 0.03162 µM): 0.966; relative viability ([8]; first compound 0.1 µM): 0.869; relative viability ([9]; first compound 0.001 µM): 0.233; relative viability ([9]; first compound 0.003162 µM): 0.184; relative viability ([9]; first compound 0.01 µM): 0.154; relative viability ([9]; first compound 0.1 µM): 0.184; relative viability ([10]; first compound 0.001 µM): 0.901; relative viability ([10]; first compound 0.003162 µM): 1.29; relative viability ([10]; first compound 0.01 µM): 1.05; relative viability ([10]; first compound 0.03162 µM): 0.894; relative viability ([10]; first compound 0.1 µM): 0.293; relative viability ([11]; first compound 0.001 µM): 0.777; relative viability ([11]; first compound 0.003162 µM): 1.05; relative viability ([11]; first compound 0.01 µM): 1.12; relative viability ([11]; first compound 0.03162 µM): 1.16; relative viability ([11]; first compound 0.1 µM): 0.268; relative viability ([12]; first compound 0.001 µM): 0.76; relative viability ([12]; first compound 0.003162 µM): 0.679; relative viability ([12]; first compound 0.01 µM): 0.649; relative viability ([12]; first compound 0.03162 µM): 0.761; relative viability ([12]; first compound 0.1 µM): 0.747; relative viability ([13]; first compound 0.001 µM): 0.954; relative viability ([13]; first compound 0.003162 µM): 0.924; relative viability ([13]; first compound 0.01 µM): 0.921; relative viability ([13]; first compound 0.03162 µM): 0.775; relative viability ([13]; first compound 0.1 µM): 0.153; relative viability ([14]; first compound 0.001 µM): 1.02; relative viability ([14]; first compound 0.003162 µM): 0.575; relative viability ([14]; first compound 0.01 µM): 0.9; relative viability ([14]; first compound 0.03162 µM): 1.14; relative viability ([14]; first compound 0.1 µM): 0.596; relative viability ([15]; first compound 0.001 µM): 0.851; relative viability ([15]; first compound 0.003162 µM): 0.931; relative viability ([15]; first compound 0.01 µM): 0.917; relative viability ([15]; first compound 0.03162 µM): 0.668; relative viability ([15]; first compound 0.1 µM): 0.424; relative viability ([16]; first compound 0.001 µM): 0.986; relative viability ([16]; first compound 0.003162 µM): 1.13; relative viability ([16]; first compound 0.01 µM): 1.22; relative viability ([16]; first compound 0.03162 µM): 0.98; relative viability ([16]; first compound 0.1 µM): 0.517; relative viability ([17]; first compound 0.001 µM): 0.894; relative viability ([17]; first compound 0.003162 µM): 0.996; relative viability ([17]; first compound 0.01 µM): 0.742; relative viability ([17]; first compound 0.03162 µM): 1.03; relative viability ([17]; first compound 0.1 µM): 0.389; relative viability ([18]; first compound 0.001 µM): 0.788; relative viability ([18]; first compound 0.003162 µM): 1.1; relative viability ([18]; first compound 0.01 µM): 1.08; relative viability ([18]; first compound 0.03162 µM): 1.01; relative viability ([18]; first compound 0.1 µM): 0.191; relative viability ([19]; first compound 0.001 µM): 0.702; relative viability ([19]; first compound 0.003162 µM): 0.611; relative viability ([19]; first compound 0.01 µM): 0.739; relative viability ([19]; first compound 0.03162 µM): 0.775; relative viability ([19]; first compound 0.1 µM): 0.15; relative viability ([20]; first compound 0.001 µM): 1.01; relative viability ([20]; first compound 0.003162 µM): 1.15; relative viability ([20]; first compound 0.01 µM): 1.09; relative viability ([20]; first compound 0.03162 µM): 0.984; relative viability ([20]; first compound 0.1 µM): 0.88; relative viability ([21]; first compound 0.001 µM): 0.897; relative viability ([21]; first compound 0.003162 µM): 0.65; relative viability ([21]; first compound 0.01 µM): 0.918; relative viability ([21]; first compound 0.03162 µM): 0.851; relative viability ([21]; first compound 0.1 µM): 0.682; relative viability ([22]; first compound 0.001 µM): 0.446; relative viability ([22]; first compound 0.003162 µM): 0.445; relative viability ([22]; first compound 0.01 µM): 0.549; relative viability ([22]; first compound 0.03162 µM): 0.42; relative viability ([22]; first compound 0.1 µM): 0.436
